Measurements taken from PubChem BioAssay AID2060626 (Molecular Pharmacology Branch, DTP, NCI, 2025).
Several values for one entry are separate records, joined by “and”; a condition that tells them apart may be missing. Equal values may be shown once.

Test system: 168753-222-R-J1-PDC complex spheroid viability
Experiment: Anticancer human tumor 168753-222-R-J1-PDC patient-derived bladder carcinoma cell line growth inhibition [CLK]
Conditions: for viability, T/C: stronger effect = lower value
Text: A high-throughput screen of multi-cell type tumor spheroids was designed to identify active combinations of […] and targeted small molecules. Complex spheroids include a stromal component modeled by human endothelial cells (HUVEC) and fibroblasts modeled by human mesenchymal stem cells (MSCs). The concentration ranges selected for each drug and investigational agent were based upon clinically achievable concentrations if the clinical Cmax of the agent was known.
Compounds. The drugs and investigational agents: cirtuvivint (SM08502; NSC835563), CC-671 (NSC850746), vemurafenib (NSC761431), tapotoclax (NSC804041), sotorasib (NSC818433), adagrasib (NSC831453), MRTX-1133 (NSC836407), BAY2416964 (NSC825713), copanlisib (NSC816437), inavolisib (NSC800729), abemaciclib (NSC768073), osimertinib (NSC779217), entinostat (NSC756642), eltanexor (KPT-8602, NSC794443), venetoclax (NSC766270), ceralasertib (NSC777638), bortezomib (NSC756655), olaparib (NSC753686), talazoparib (NSC767125), alisertib (NSC759677), peposertib (NSC802822), gemcitabine (NSC613327), 5-fluorouracil (NSC19893), SN-38 (NSC673596), oxaliplatin (NSC266046), paclitaxel (NSC125973), and doxorubicin (NSC123127), were obtained from the National Cancer Institute (NCI) Developmental Therapeutics Program Chemical Repository. The FDA-approved anticancer drug set is available from the Developmental Therapeutics Program at https://dtp.cancer.gov/organization/dscb/obtaining/available plates.htm. […] The stock solutions were prepared in dimethyl sulfoxide (DMSO, Sigma-Aldrich, St. Louis, MO, cat. D2650), except for the platinum complexes which were prepared in saline (Quality Biological, Gaithersburg, MD, cat. 114-055-101), at 800-fold the tested concentration and stored at -70 degrees C prior to their use. All drugs and investigational agents were tested over a range starting from a high concentration at or near the clinical Cmax and decreasing in half-log increments. If the clinical Cmax for an agent had not been determined, the highest concentration tested was 10 microM.
Cell Culture. All cells were maintained in an incubator at 37 degrees C and 5% CO2 with 95% humidity. The PDC lines were cultured according to standard operating procedures established by the NCI PDMR. Briefly, all PDCs were thawed and cultured in Matrigel-coated flasks prepared with a working solution of 1X Ham's F-12 nutrient mix, without supplementation (Invitrogen, Waltham, MA, cat. 11765054), 100 U/mL penicillin-streptomycin (Invitrogen, cat. 15140122), and 2.5% Matrigel (Corning Inc., Corning, NY, cat. 354248) for the first three passages. The 947758-054-R-J2-PDC line was cultured in 6B/Colon 1A media, which includes advanced DMEM/F-12 (Thermo Fisher Scientific, cat. 12634028), 10 mM HEPES (Thermo Fisher Scientific, cat. 15630080), 1X GlutaMAX supplement (Thermo Fisher Scientific, cat. 35050061), 0.1 mg/mL primocin (InvivoGen, cat. ant-pm-2), 10% defined fetal bovine serum, heat inactivated (HyClone Laboratories Inc., cat. SH30070.03HI), 1.25 mM N-Acetyl-L-cysteine (Sigma-Aldrich, cat. A9165), 10 mM nicotinamide (Sigma-Aldrich, cat. N0636), 1X B-27 supplement (Thermo Fisher Scientific, cat. 17504044), 1X N-2 supplement (Thermo Fisher Scientific, cat. 17502048), and 10 microM Y-27632 dihydrochloride (Tocris Bioscience, cat. 1254). The 876862-298-R-J1-PDC was cultured in 6E media, which includes all 6B/Colon 1A media components plus 50% L-WRN conditioned media (ATCC, cat. CRL-3276), 50 ng/mL recombinant human EGF recombinant protein (hEGF; Thermo Fisher Scientific, cat. PHG0311), 10 ng/mL recombinant human fibroblast growth factor 10 (hGFG-10; PeproTech, cat. 100-26), 1 ng/mL recombinant human fibroblast growth factor 2 (hFGF-2; PeproTech, cat. 100-18B), and 1 µM prostaglandin E2 (PGE2; Tocris, cat. 2296). The 227483-062-R1-J1-PDC line was cultured in Panc media, containing all 6E components except hFGF-2, with the addition of 500 nM SB-431542 (Selleckchem, cat. S1067) and 10 nM gastrin (Tocris, cat. 3006). […]

[1] = curve of first compound, second compound 0.0316 µM
[2] = curve of first compound, second compound 0.1 µM
[3] = curve of first compound, second compound 0.316 µM
[4] = curve of first compound, second compound 1 µM
[5] = curve of first compound, second compound 3.16 µM
[6] = curve of first compound, second compound 10 µM
[7] = second compound 0.0316 µM, first compound 0.0316 µM
[8] = second compound 0.0316 µM, first compound 0.1 µM
[9] = second compound 0.0316 µM, first compound 0.316 µM
[10] = second compound 0.0316 µM, first compound 1 µM
[11] = second compound 0.0316 µM, first compound 3.16 µM
[12] = second compound 0.0316 µM, first compound 10 µM
[13] = second compound 0.1 µM, first compound 0.0316 µM
[14] = second compound 0.1 µM, first compound 0.1 µM
[15] = second compound 0.1 µM, first compound 0.316 µM
[16] = second compound 0.1 µM, first compound 1 µM
[17] = second compound 0.1 µM, first compound 3.16 µM
[18] = second compound 0.1 µM, first compound 10 µM
[19] = second compound 0.316 µM, first compound 0.0316 µM
[20] = second compound 0.316 µM, first compound 0.1 µM
[21] = second compound 0.316 µM, first compound 0.316 µM
[22] = second compound 0.316 µM, first compound 1 µM
[23] = second compound 0.316 µM, first compound 3.16 µM
[24] = second compound 0.316 µM, first compound 10 µM
[25] = second compound 1 µM, first compound 0.0316 µM
[26] = second compound 1 µM, first compound 0.1 µM
[27] = second compound 1 µM, first compound 0.316 µM
[28] = second compound 1 µM, first compound 1 µM
[29] = second compound 1 µM, first compound 3.16 µM
[30] = second compound 1 µM, first compound 10 µM
[31] = second compound 3.16 µM, first compound 0.0316 µM
[32] = second compound 3.16 µM, first compound 0.1 µM
[33] = second compound 3.16 µM, first compound 0.316 µM
[34] = second compound 3.16 µM, first compound 1 µM
[35] = second compound 3.16 µM, first compound 3.16 µM
[36] = second compound 3.16 µM, first compound 10 µM
[37] = second compound 10 µM, first compound 0.0316 µM
[38] = second compound 10 µM, first compound 0.1 µM
[39] = second compound 10 µM, first compound 0.316 µM
[40] = second compound 10 µM, first compound 1 µM
[41] = second compound 10 µM, first compound 3.16 µM
[42] = second compound 10 µM, first compound 10 µM
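Further: viability measured after seven days of drug exposure.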
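Wherever viability, T/C is given: luminescence signal used as surrogate for viable cell amount; 100% = DMSO vehicle control wells.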

CN1CCN(c2cc(C(=O)Nc3cc4cc(-c5cnn(C)c5)ccc4cn3)ccn2)CC1
viability, T/C (compound 0.316 µM): 10.2% [middle of 12 runs]
viability, T/C (compound 1 µM): 1.32% [middle of 11 runs]
viability, T/C (compound 3.16 µM): 0.5% [middle of 11 runs]
viability, T/C (compound 10 µM): 0.32% [middle of 10 runs]
IC50 (compound alone, run of 07/31/2023): 102 nM [middle of 12 runs]

COc1ccc([C@@H](O)c2cc(-c3ncnc4cc(N5CCOCC5)ccc34)c(F)cc2Cl)nn1
viability, T/C (compound 0.0316 µM): 90% and 106%
viability, T/C (compound 0.1 µM): 95.4% and 97.4%
viability, T/C (compound 0.316 µM): 40.8% and 95.7%
viability, T/C (compound 1 µM): 26.3% and 80.3%
viability, T/C (compound 3.16 µM): 13.1% and 37.1%
viability, T/C (compound 10 µM): 7.58% and 16.6%
IC50 (curve of compound): 258 nM and 2250 nM

COc1cccc2c1C(=O)c1c(O)c3c(c(O)c1C2=O)CC(O)(C(=O)CO)CC3OC1CC(N)C(O)C(C)O1 (stereo not given)
viability, T/C (compound 0.0316 µM): 49.4% and 85.7%
viability, T/C (compound 0.1 µM): 38.7% and 47.7%
viability, T/C (compound 0.316 µM): 28.3% and 46.2%
viability, T/C (compound 1 µM): 7.17% and 21%
viability, T/C (compound 3.16 µM): 7.34% and 13.8%
viability, T/C (compound 10 µM): 0.22% and 0.15%
IC50 (curve of compound): < 31.6 nM and 159 nM

C=CC(=O)N1CCN(c2nc(=O)n(-c3c(C)ccnc3C(C)C)c3nc(-c4c(O)cccc4F)c(F)cc23)C(C)C1 (stereo not given) + CN1CCN(c2cc(C(=O)Nc3cc4cc(-c5cnn(C)c5)ccc4cn3)ccn2)CC1
IC50 [1]: > 10000 nM
IC50 [2]: 3770 nM
IC50 [3]: < 31.6 nM
IC50 [4]: < 31.6 nM
IC50 [5]: < 31.6 nM
IC50 [6]: < 31.6 nM
viability, T/C [7]: 96.6%
viability, T/C [8]: 107%
viability, T/C [9]: 111%
viability, T/C [10]: 133%
viability, T/C [11]: 82.8%
viability, T/C [12]: 100%
viability, T/C [13]: 79.4%
viability, T/C [14]: 84.5%
viability, T/C [15]: 55.5%
viability, T/C [16]: 75.3%
viability, T/C [17]: 52.5%
viability, T/C [18]: 32.1%
viability, T/C [19]: 16.2%
viability, T/C [20]: 13.4%
viability, T/C [21]: 14.2%
viability, T/C [22]: 13.8%
viability, T/C [23]: 12.8%
viability, T/C [24]: 15.2%
viability, T/C [25]: 0.29%
viability, T/C [26]: 0.48%
viability, T/C [27]: 1.79%
viability, T/C [28]: 0.27%
viability, T/C [29]: 0.3%
viability, T/C [30]: 0.2%
viability, T/C [31]: 1.43%
viability, T/C [32]: 0.16%
viability, T/C [33]: 0.55%
viability, T/C [34]: 0.11%
viability, T/C [35]: 1.89%
viability, T/C [36]: 0.22%
viability, T/C [37]: 0.21%
viability, T/C [38]: 0.2%
viability, T/C [39]: 0.6%
viability, T/C [40]: 0.18%
viability, T/C [41]: 0.4%
viability, T/C [42]: 0.57%

CCCS(=O)(=O)Nc1ccc(F)c(C(=O)c2c[nH]c3ncc(-c4ccc(Cl)cc4)cc23)c1F + CN1CCN(c2cc(C(=O)Nc3cc4cc(-c5cnn(C)c5)ccc4cn3)ccn2)CC1
IC50 [1]: > 10000 nM
IC50 [2]: 7830 nM
IC50 [3]: < 31.6 nM
IC50 [4]: < 31.6 nM
IC50 [5]: < 31.6 nM
IC50 [6]: < 31.6 nM
viability, T/C [7]: 96.7%
viability, T/C [8]: 116%
viability, T/C [9]: 112%
viability, T/C [10]: 122%
viability, T/C [11]: 112%
viability, T/C [12]: 59.5%
viability, T/C [13]: 80.1%
viability, T/C [14]: 94.7%
viability, T/C [15]: 58.3%
viability, T/C [16]: 88.5%
viability, T/C [17]: 86.5%
viability, T/C [18]: 41.5%
viability, T/C [19]: 15.8%
viability, T/C [20]: 17.8%
viability, T/C [21]: 16%
viability, T/C [22]: 14.7%
viability, T/C [23]: 20.1%
viability, T/C [24]: 22.1%
viability, T/C [25]: 0.38%
viability, T/C [26]: 0.46%
viability, T/C [27]: 0.31%
viability, T/C [28]: 0.33%
viability, T/C [29]: 0.96%
viability, T/C [30]: 2.48%
viability, T/C [31]: 0.11%
viability, T/C [32]: 1.81%
viability, T/C [33]: 0.12%
viability, T/C [34]: 0.11%
viability, T/C [35]: 2.3%
viability, T/C [36]: 1.36%
viability, T/C [37]: 0.16%
viability, T/C [38]: 2.21%
viability, T/C [39]: 0.61%
viability, T/C [40]: 0.3%
viability, T/C [41]: 3.61%
viability, T/C [42]: 3.12%

COC1C=CCC(C)C(C)S(=O)(=O)NC(=O)c2ccc3c(c2)N(CC2CCC21)CC1(CCCc2cc(Cl)ccc21)CO3 (stereo not given) + CN1CCN(c2cc(C(=O)Nc3cc4cc(-c5cnn(C)c5)ccc4cn3)ccn2)CC1
IC50 [1]: 936 nM
IC50 [2]: 191 nM
IC50 [3]: < 31.6 nM
IC50 [4]: < 31.6 nM
IC50 [5]: < 31.6 nM
IC50 [6]: < 31.6 nM
viability, T/C [7]: 77.2%
viability, T/C [8]: 101%
viability, T/C [9]: 68.9%
viability, T/C [10]: 48.4%
viability, T/C [11]: 27.6%
viability, T/C [12]: 14.2%
viability, T/C [13]: 67.5%
viability, T/C [14]: 58.4%
viability, T/C [15]: 43.9%
viability, T/C [16]: 21.8%
viability, T/C [17]: 18%
viability, T/C [18]: 12.6%
viability, T/C [19]: 17.1%
viability, T/C [20]: 12.4%
viability, T/C [21]: 13.3%
viability, T/C [22]: 8.91%
viability, T/C [23]: 9.07%
viability, T/C [24]: 3.48%
viability, T/C [25]: 0.33%
viability, T/C [26]: 3.47%
viability, T/C [27]: 0.21%
viability, T/C [28]: 0.82%
viability, T/C [29]: 2.3%
viability, T/C [30]: 1.79%
viability, T/C [31]: 0.17%
viability, T/C [32]: 0.15%
viability, T/C [33]: 3.67%
viability, T/C [34]: 0.12%
viability, T/C [35]: 0.15%
viability, T/C [36]: 0.59%
viability, T/C [37]: 0.4%
viability, T/C [38]: 0.21%
viability, T/C [39]: 2.52%
viability, T/C [40]: 0.21%
viability, T/C [41]: 0.23%
viability, T/C [42]: 1.62%
